Assay results published in patent US8410178B2, “CIS 3,4-dihydroxy-2-(3-methylbutanoyl)-5-(3-methylbutyl)-4-(4-methylpentanoyl)cyclopent-2-en-1-derivatives, substantially enantiomerically pure compositions and methods” (KinDex Therapeutics, LLC, priority 2010, dated 2013).

How the values were obtained:
3T3-L1 adipocytes = assay: Lipogenesis in 3T3-L1 adipocytes (Oil Red O staining); assay type: cell-based, Murine
Protocol: The effect of (+)-KDT501 on lipogenesis was evaluated in 3T3-L1 adipocytes.
Murine 3T3-L1 preadipocytes (ATCC, Rockville, Md.) were maintained in DMEM (Invitrogen, Rockville, Md.) supplemented with 10% fetal bovine serum (FBS; ATCC). As preadipocytes, 3T3-L1 cells have a fibroblastic appearance. They replicate in culture until they form a confluent monolayer, after which cell-cell contact triggers G0/G1 growth arrest. Subsequent stimulation with 3-isobutyl-1-methylxanthane, dexamethasone, and high does of insulin for two days prompts the cells to undergo post-confluent mitotic clonal expansion, exit the cell cycle, and begin to express adipocyte-specific genes. Approximately five days after induction of differentiation, the cells display the characteristic lipid-filled adipocyte phenotype.
Cells were seeded at an initial density of approximately […] in 24-well plates and allowed to grow for 2 days to confluence. […]
Microscopic evaluation was performed at day 0 and every two days throughout testing to assess preadipocyte differentiation to adipocyte morphology. Intracellular lipid was quantified with Oil Red O staining. […] 150 μL of sample was transferred to a 96 well plate and absorbance was measured at 530 nm using a plate reader (Thermo Electron Corp.). […]

[1] = target: T1, angiotensin II receptor type II (AGTR2) (Homo sapiens, UniProt P50052); assay: Competitive binding to AGTR2 ([125I]CGP 42112A); conditions: binding target AGTR2; competitor ligand Angiotensin-II
T1 sequence (P50052 1-363): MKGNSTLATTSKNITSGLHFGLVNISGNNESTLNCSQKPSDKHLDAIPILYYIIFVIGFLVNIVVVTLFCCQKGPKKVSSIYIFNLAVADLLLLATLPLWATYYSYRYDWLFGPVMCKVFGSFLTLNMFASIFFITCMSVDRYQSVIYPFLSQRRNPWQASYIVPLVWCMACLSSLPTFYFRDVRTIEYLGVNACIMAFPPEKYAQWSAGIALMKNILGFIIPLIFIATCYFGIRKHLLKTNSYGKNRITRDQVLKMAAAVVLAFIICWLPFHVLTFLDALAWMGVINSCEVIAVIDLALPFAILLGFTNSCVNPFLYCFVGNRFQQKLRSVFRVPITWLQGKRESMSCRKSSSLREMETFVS

THP-1 cells = assay: TNF-α- and LPS-mediated inflammatory factors in THP-1 cells; assay type: cell-based, human; conditions: TNF-α and LPS-induced, 50, 25, 12.5 and 3.125 μM
Protocol: The anti-inflammatory effect of (+)-KDT501 was evaluated in human monocytic THP-1 cells.
THP-1 cells (ATCC, Manassas, Va.) were maintained in RPMI1640 in the presence of 10% serum according to manufacturer's instructions. The cells were pre-incubated with (+)-KDT501 at varying concentrations (50, 25, 12.5 and 3.125 μM) for one hour, then stimulated with TNF-α(10 ng/ml; Sigma, St. Louis, Mo.) or E. coli LPS (1 μg/ml; Sigma, St. Louis, Mo.) overnight (16-20 hours). MMP-9 levels in the medium were measured using an ELISA kit (GE Healthcare, Piscataway, N.J.), and cytokines were assayed using a Milliplex MAP human cytokine/chemokine kit (Millipore, Billerica, Mass.). Analytes were quantified using a Luminex 100™ IS. Data were analyzed using a five-parameter logistic method.

[2] = target: T2, peroxisome proliferator-activated receptor gamma (PPARγ) (Homo sapiens, UniProt P37231); assay: Competitive binding to PPARγ ([3H]rosiglitazone)
T2 sequence (P37231 1-505): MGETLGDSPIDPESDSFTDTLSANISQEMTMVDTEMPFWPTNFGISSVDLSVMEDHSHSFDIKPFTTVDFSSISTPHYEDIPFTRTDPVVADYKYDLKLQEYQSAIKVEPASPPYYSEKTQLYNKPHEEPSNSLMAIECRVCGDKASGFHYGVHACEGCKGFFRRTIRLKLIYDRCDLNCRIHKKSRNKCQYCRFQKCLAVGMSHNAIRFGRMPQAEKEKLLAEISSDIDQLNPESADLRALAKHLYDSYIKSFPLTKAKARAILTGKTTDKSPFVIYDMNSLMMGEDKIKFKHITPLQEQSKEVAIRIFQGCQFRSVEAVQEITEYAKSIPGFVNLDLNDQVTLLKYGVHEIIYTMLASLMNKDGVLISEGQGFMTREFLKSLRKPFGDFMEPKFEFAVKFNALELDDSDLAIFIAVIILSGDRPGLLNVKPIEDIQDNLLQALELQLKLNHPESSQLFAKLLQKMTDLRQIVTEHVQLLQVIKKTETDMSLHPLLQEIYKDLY

CC(C)CCC(=O)[C@@]1(O)C(O)=C(C(=O)CC(C)C)C(=O)[C@@H]1CCC(C)C.[K] [(+)-KDT501, (+)-(4S,5R)-3,4-dihydroxy-2-(3-methylbutanoyl)-5-(3-methylbutyl)-4-(4-methylpentanoyl)cyclopent-2-en-1-one potassium salt]
lipogenesis (intracellular lipid, Oil Red O) (3T3-L1 adipocytes; 3T3-L1 adipocytes, 6.25, 12.5, and 25 μM): increased lipogenesis in 3T3-L1 adipocytes in a statistically significant manner
adipogenesis (3T3-L1 adipocytes; 3T3-L1 murine fibroblast model): induce both lipogenesis and adipogenesis in a dose-dependent manner
IC50 [1]: 14 µM
Ki [1]: 7.1 µM
nH [1]: 1.4
expression of IL-1β (THP-1 cells): inhibited
expression of MCP-1 (THP-1 cells): inhibited
expression of MIP-1α (THP-1 cells): inhibited
expression of MMP-9 (THP-1 cells): inhibited
expression of RANTES (THP-1 cells): inhibited
IC50 [2]: 8.4 µM
Ki [2]: 4.5 µM
nH ([2]; binding target PPARγ, competitor ligand Rosiglitazone): 1.1
